According to ChEMBL document CHEMBL3431459, “Roche carnitine palmitoyltransferase modulator screening data (supplementary data associated with the publication CHEMBL2216752)”:
pIC50: −log10 of the molar value. Converted amounts (≈) assume the structure as drawn.

What was measured:
[1] = biological target: T1, Carnitine O-palmitoyltransferase 1, muscle isoform (Homo sapiens, UniProt Q92523); experiment: SUPPLEMENTARY: Inhibition of Carnitine palmitoyltransferase 1, muscle isoform; design: species or system Muscle tissue
T1 sequence (Q92523 whole entry): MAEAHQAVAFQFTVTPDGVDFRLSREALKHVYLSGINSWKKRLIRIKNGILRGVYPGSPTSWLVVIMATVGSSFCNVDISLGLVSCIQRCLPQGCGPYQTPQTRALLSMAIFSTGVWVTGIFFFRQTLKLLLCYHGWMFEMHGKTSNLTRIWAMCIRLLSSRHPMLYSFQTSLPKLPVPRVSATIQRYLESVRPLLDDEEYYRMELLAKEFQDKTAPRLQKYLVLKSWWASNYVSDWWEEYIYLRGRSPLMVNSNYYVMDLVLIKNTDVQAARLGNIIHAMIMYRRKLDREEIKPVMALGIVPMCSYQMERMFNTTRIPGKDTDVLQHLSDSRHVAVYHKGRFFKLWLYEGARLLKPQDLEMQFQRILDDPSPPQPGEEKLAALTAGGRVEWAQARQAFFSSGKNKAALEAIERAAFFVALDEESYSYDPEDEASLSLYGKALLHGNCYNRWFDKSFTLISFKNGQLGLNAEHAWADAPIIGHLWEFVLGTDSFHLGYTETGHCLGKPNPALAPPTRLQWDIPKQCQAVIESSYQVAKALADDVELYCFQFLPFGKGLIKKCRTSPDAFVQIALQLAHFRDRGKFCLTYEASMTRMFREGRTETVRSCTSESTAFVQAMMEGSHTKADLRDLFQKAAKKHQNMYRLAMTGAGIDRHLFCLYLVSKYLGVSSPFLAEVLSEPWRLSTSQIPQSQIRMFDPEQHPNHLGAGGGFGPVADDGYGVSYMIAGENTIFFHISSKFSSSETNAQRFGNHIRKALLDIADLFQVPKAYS

[2] = biological target: T2, Carnitine O-palmitoyltransferase 2, mitochondrial (Homo sapiens, UniProt P23786); experiment: (§1) SUPPLEMENTARY: Inhibition of Carnitine palmitoyltransferase 2
T2 sequence (P23786 whole entry): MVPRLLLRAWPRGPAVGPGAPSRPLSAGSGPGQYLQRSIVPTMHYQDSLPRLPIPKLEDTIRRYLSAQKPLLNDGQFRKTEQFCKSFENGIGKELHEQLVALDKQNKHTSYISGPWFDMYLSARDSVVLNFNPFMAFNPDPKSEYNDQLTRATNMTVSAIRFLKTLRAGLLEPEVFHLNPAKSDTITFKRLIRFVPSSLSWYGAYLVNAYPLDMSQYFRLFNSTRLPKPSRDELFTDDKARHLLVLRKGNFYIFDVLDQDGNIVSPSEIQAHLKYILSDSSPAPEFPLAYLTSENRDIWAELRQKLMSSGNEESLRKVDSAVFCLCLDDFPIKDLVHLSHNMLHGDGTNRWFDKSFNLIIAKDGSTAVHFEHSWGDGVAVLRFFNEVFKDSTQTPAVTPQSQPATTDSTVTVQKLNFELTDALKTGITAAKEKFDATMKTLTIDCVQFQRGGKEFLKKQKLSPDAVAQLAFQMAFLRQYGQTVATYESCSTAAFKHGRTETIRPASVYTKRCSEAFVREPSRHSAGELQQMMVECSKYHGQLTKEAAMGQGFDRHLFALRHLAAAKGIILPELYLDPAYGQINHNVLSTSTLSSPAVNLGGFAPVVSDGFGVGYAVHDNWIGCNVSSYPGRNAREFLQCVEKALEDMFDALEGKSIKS

[3] = biological target: T3, Carnitine O-palmitoyltransferase 2, mitochondrial (Rattus norvegicus, UniProt P18886); experiment: as §1
T3 sequence (P18886 whole entry): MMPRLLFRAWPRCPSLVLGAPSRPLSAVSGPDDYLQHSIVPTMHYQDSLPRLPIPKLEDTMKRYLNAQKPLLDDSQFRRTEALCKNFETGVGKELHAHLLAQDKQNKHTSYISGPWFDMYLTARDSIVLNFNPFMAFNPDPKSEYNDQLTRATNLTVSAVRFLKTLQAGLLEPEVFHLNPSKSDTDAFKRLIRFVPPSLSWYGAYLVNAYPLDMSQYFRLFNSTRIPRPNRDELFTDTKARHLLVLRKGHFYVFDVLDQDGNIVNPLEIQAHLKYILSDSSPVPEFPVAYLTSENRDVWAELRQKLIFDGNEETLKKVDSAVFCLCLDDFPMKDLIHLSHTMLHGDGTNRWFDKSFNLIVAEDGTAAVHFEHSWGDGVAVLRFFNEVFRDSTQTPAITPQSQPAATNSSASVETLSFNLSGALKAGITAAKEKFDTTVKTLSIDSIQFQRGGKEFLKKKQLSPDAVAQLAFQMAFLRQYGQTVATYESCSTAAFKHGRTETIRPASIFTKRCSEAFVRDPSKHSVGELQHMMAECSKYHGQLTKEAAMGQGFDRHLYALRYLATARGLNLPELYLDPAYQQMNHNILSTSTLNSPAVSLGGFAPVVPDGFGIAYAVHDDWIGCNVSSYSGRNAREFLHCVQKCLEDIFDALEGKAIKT

[4] = biological target: T4, Carnitine O-palmitoyltransferase 1, liver isoform (Homo sapiens, UniProt P50416); experiment: (§2) SUPPLEMENTARY: Inhibition of Carnitine palmitoyltransferase 1, liver isoform
T4 sequence (P50416 whole entry): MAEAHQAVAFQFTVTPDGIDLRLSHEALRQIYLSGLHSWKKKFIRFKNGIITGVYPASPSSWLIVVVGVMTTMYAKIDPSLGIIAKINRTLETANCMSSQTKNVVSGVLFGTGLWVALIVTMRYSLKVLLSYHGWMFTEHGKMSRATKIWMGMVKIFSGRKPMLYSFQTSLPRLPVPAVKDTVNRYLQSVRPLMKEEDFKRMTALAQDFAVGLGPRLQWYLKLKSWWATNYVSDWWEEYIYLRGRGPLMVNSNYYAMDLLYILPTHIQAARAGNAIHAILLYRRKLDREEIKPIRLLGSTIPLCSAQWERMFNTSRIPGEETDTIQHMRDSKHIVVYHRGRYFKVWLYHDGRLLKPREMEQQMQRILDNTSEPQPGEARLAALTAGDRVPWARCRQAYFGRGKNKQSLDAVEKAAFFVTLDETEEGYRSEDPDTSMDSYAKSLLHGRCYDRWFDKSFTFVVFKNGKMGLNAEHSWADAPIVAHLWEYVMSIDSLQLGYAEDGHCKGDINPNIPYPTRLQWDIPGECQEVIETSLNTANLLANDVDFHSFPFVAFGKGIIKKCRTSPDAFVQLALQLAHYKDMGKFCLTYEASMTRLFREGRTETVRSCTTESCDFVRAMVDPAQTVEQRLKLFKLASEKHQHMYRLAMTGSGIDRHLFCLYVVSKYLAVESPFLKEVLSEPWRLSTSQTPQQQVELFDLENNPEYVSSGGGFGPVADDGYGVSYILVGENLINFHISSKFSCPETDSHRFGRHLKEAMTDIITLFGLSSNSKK

[5] = biological target: T5, Carnitine O-palmitoyltransferase 1, liver isoform (Rattus norvegicus, UniProt P32198); experiment: as §2
T5 sequence (P32198 whole entry): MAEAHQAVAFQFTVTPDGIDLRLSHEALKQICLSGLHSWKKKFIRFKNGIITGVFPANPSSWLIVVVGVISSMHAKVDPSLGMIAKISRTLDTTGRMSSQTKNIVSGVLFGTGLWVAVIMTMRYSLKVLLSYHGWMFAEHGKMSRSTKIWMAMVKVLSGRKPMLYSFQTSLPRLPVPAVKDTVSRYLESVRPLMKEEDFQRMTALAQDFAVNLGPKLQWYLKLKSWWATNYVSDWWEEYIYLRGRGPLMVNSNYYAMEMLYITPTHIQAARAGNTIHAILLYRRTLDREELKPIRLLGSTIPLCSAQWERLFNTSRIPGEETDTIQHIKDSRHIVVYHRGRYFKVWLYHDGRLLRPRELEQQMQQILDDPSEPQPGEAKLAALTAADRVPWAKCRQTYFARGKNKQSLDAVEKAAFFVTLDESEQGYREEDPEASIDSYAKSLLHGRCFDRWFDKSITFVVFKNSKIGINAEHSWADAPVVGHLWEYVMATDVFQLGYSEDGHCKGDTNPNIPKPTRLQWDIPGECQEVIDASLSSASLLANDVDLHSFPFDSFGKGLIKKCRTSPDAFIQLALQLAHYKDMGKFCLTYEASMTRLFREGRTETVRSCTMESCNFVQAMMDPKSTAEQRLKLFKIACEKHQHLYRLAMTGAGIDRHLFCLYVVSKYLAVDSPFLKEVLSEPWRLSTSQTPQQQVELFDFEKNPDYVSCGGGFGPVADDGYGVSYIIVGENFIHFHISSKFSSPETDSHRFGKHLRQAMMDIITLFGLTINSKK

[6] = SUPPLEMENTARY: Lyophilisation Solubility Assay (LYSA); type: physicochemical; settings: read-out: Kinetic_solubility
[7] = SUPPLEMENTARY: Lipophilicity (log D) Determination by high-throughput shake-flask; type: physicochemical; settings: octanol/water
[8] = SUPPLEMENTARY: PAMPA permeability assay; type: physicochemical; settings: read-out: Permeability

Compound | pIC50 [1] | pIC50 [2] | pIC50 [3] | pIC50 [4] | pIC50 [5] | solubility kinetic [6] [µg/mL] | logD [7] | Papp [8] [×10⁻⁶ cm/s]
Cc1ncc(-c2noc([C@H]3CCCCN3C(=O)COc3ccccc3)n2)c(=O)[nH]1 | < 4.00 | < 4.00 | < 4.00 | 6.86 | 5.81 | > 505 | 1.14 | 3.03
COc1ccc(Cl)cc1S(=O)(=O)N1CCc2ccc(C#Cc3ccc(C(=O)O)cc3)cc21 | 4.09 | < 4.00 | < 4.00 | 6.95 | 6.95 | < 1 | 3.3 | 0.26
CC(=O)Nc1cc(-c2nc([C@H]3CCCCN3C(=O)COc3ccccc3)no2)ccn1 | < 4.00 | < 4.00 | < 4.00 | 7.29 | 6.49 | 113 (≈ 268 µM) | 2.54 | 5.4
COc1ccc(Cl)cc1S(=O)(=O)N1CCc2ccc(C(=O)Nc3ccc(CC(=O)O)cc3)cc21 | 5.67 | < 4.00 | < 4.00 | 7.01 | 7.49 | 532 (≈ 1060 µM) | 0.33 | 4.09
Cc1cc(C)cc(S(=O)(=O)c2nn(CCC(=O)O)c3ccc(C(=O)Nc4ccccc4)cc23)c1 | < 4.00 | < 4.00 | < 4.00 | 7.57 | 7.65 | 8 (≈ 16.8 µM) | 1.94 | 0.91
COc1ccc(Cl)cc1S(=O)(=O)N1CCSc2ccc(C(=O)Nc3nc(CC(=O)O)cs3)cc21 | 6.00 | < 4.00 | < 4.00 | 7.94 | 7.69 | 5 (≈ 9.26 µM) | 0.39 | 3.65
O=C(COc1ccccc1)N1CCCC[C@@H]1c1noc(-c2ccc(-n3cnnn3)cc2)n1 | < 4.00 | 4.82 | < 4.00 | 7.01 | 7.01 | 8 (≈ 18.5 µM) | 2.92 | 1.7
CC(=O)Nc1cccc(-n2nnc([C@H]3CCCCN3C(=O)COc3ccccc3)n2)c1 | < 4.00 | 5.09 | < 4.00 | 6.96 | 7.15 | 26 (≈ 61.8 µM) | 3 | 3.5
COc1ccc(Cl)cc1S(=O)(=O)Nc1cc(C(=O)Nc2ccc(C(=O)O)cc2)cc(OC)c1OC | < 4.00 | 5.52 | 5.97 | 7.36 | 6.60 | > 598 | 0.56 | 1.57

The next lines start with the values.

pIC50 [1] | pIC50 [2] | pIC50 [3] | pIC50 [4] | pIC50 [5] | solubility kinetic [6] [µg/mL] | logD [7] | Papp [8] [×10⁻⁶ cm/s] | Compound
< 4.00 | < 4.00 | < 4.00 | 7.05 | 7.21 | < 1 | 3.09 | 3.86 | O=C1CCCN1c1cccc(-c2noc([C@H]3CCCCN3C(=O)COc3ccccc3)n2)c1
4.35 | < 4.00 | < 4.00 | 6.65 | 7.07 | 8 (≈ 18.1 µM) | 2.38 | 0.75 | COc1ccc(Cl)cc1S(=O)(=O)Nc1cccc(C#Cc2ccc(C(=O)O)cc2)c1
6.36 | < 4.00 | < 4.00 | 7.12 | 7.26 | 26 (≈ 53.1 µM) | 0.25 | 0.95 | Cn1cc(S(=O)(=O)c2cccc(Cl)c2)c2cc(C(=O)Nc3nc(CC(=O)O)cs3)ccc21
< 4.00 | 4.77 | < 4.00 | 6.85 | 6.30 | 50 (≈ 112 µM) | 2.25 | 0.47 | O=C(COc1ccccc1)N1CCCC[C@@H]1c1noc(-c2ccc3[nH]c(=O)c(=O)[nH]c3c2)n1
5.10 | 5.26 | 4.80 | 6.69 | 6.99 | 45 (≈ 76.9 µM) | -0.37 | 0.06 | COc1ccc(Cl)cc1S(=O)(=O)N1CCS(=O)(=O)c2ccc(C(=O)Nc3ccc(C(=O)O)c(Cl)c3)cc21
